The values below are quoted from earlier work in patent US8685449B2, “Pharmaceutical composition with anti-obesity activity comprising a premixture of pure orlistat and preparation process” (Laboratorios Bago S.A., priority 2010, dated 2014).

For this series the following is noted: particularly in a wet environment and at a temperature above 35° C., and inclusive in a dry environment.

Consider `CCCCCCCCCCC[C@@H](C[C@@H]1OC(=O)[C@H]1CCCCCC)OC(=O)[C@H](CC(C)C)NC=O` [orlistat, (−) tetrahydrolipstatin], for which the “stability (hydrolisis and thermal degradation)” value is “susceptible to hydrolisis and thermal degradation”.
